Data from patent US20160009693A1, “HERBICIDAL COMPOUNDS” (SYNGENTA LIMITED, priority 2013, published 2016).

Each compound was assayed on Setaria faberi (SETFA) (assay: Herbicidal glasshouse test, pre-emergence, SETFA). Conditions: applied at 1000 g/h, evaluated after 13 days.
Format: in vivo

Row | Compound | PRE Application SETFA, percentage damage (five point scale)
1 | Cn1nnnc1NC(=O)c1nn(C)c(=O)n(-c2cc(C(F)(F)F)cc(C(F)(F)F)c2)c1=O [Compound 1.032] | 5 (5=80-100%)
2 | Cn1nnnc1NC(=O)c1nn(C)c(=O)n(-c2cccc(Br)c2)c1=O [Compound 1.033] | 5 (5=80-100%)
3 | CCOc1cccc(-n2c(=O)c(C(=O)Nc3nnnn3C)nn(C)c2=O)c1 [Compound 1.034] | 5 (5=80-100%)
4 | Cn1nnnc1NC(=O)c1nn(C)c(=O)n(-c2cc(Cl)cc(Cl)c2)c1=O [Compound 1.035] | 4 (4=60-79%)
5 | Cc1cc(-n2c(=O)c(C(=O)Nc3nnnn3C)nn(C)c2=O)ccc1F [Compound 1.037] | 5 (5=80-100%)

These compounds were tested on Setaria faberi (SETFA) (assay: Herbicidal glasshouse test, post-emergence, SETFA). Conditions: applied at 1000 g/h, evaluated after 13 days.
Format: in vivo
Summary of the method: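 Setaria faberi seeds were sown in standard soil in pots and grown for 8 days in a glasshouse at 24/16° C. day/night, 14 hours light and 65% humidity. The seedlings were then sprayed post-emergence with the active ingredient in acetone/water (50:50) containing 0.5% Tween 20. Afterwards they were kept under the same conditions, watered twice daily, and scored for percentage damage on a five point scale.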

Row | Compound | POST Application SETFA, percentage damage (five point scale)
6 | Cn1nnnc1NC(=O)c1nn(C)c(=O)n(-c2cc(C(F)(F)F)cc(C(F)(F)F)c2)c1=O [Compound 1.032] | 4 (4=60-79%)
7 | Cn1nnnc1NC(=O)c1nn(C)c(=O)n(-c2cccc(Br)c2)c1=O [Compound 1.033] | 5 (5=80-100%)
8 | CCOc1cccc(-n2c(=O)c(C(=O)Nc3nnnn3C)nn(C)c2=O)c1 [Compound 1.034] | 5 (5=80-100%)
9 | Cn1nnnc1NC(=O)c1nn(C)c(=O)n(-c2cc(Cl)cc(Cl)c2)c1=O [Compound 1.035] | 5 (5=80-100%)
10 | Cc1cc(-n2c(=O)c(C(=O)Nc3nnnn3C)nn(C)c2=O)ccc1F [Compound 1.037] | 5 (5=80-100%)

The compounds below were run on Alopecurus myosuroides (ALOMY) (assay: Herbicidal glasshouse test, pre-emergence, ALOMY). Conditions: applied at 1000 g/h, evaluated after 13 days.
Format: in vivo

Row | Compound | PRE Application ALOMY, percentage damage (five point scale)
11 | Cn1nnnc1NC(=O)c1nn(C)c(=O)n(-c2cc(C(F)(F)F)cc(C(F)(F)F)c2)c1=O [Compound 1.032] | 5 (5=80-100%)
12 | Cn1nnnc1NC(=O)c1nn(C)c(=O)n(-c2cccc(Br)c2)c1=O [Compound 1.033] | 5 (5=80-100%)
13 | CCOc1cccc(-n2c(=O)c(C(=O)Nc3nnnn3C)nn(C)c2=O)c1 [Compound 1.034] | 5 (5=80-100%)
14 | Cn1nnnc1NC(=O)c1nn(C)c(=O)n(-c2cc(Cl)cc(Cl)c2)c1=O [Compound 1.035] | 5 (5=80-100%)
15 | Cc1cc(-n2c(=O)c(C(=O)Nc3nnnn3C)nn(C)c2=O)ccc1F [Compound 1.037] | 5 (5=80-100%)

What follows are compounds tested on Echinochloa crus-galli (ECHCG) (assay: Herbicidal glasshouse test, pre-emergence, ECHCG). Conditions: applied at 1000 g/h, evaluated after 13 days.
Format: in vivo
Summary of the method: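 Echinochloa crus-galli seeds were sown in standard soil in pots and grown for one day in a glasshouse at 24/16° C. day/night, 14 hours light and 65% humidity. Pre-emergence spraying used an aqueous solution of the active ingredient in acetone/water (50:50) with 0.5% Tween 20. Damage was scored after 13 days on a five point scale.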

Row | Compound | PRE Application ECHCG, percentage damage (five point scale)
16 | Cn1nnnc1NC(=O)c1nn(C)c(=O)n(-c2cc(C(F)(F)F)cc(C(F)(F)F)c2)c1=O [Compound 1.032] | 5 (5=80-100%)
17 | Cn1nnnc1NC(=O)c1nn(C)c(=O)n(-c2cccc(Br)c2)c1=O [Compound 1.033] | 5 (5=80-100%)
18 | CCOc1cccc(-n2c(=O)c(C(=O)Nc3nnnn3C)nn(C)c2=O)c1 [Compound 1.034] | 5 (5=80-100%)
19 | Cn1nnnc1NC(=O)c1nn(C)c(=O)n(-c2cc(Cl)cc(Cl)c2)c1=O [Compound 1.035] | 5 (5=80-100%)
20 | Cc1cc(-n2c(=O)c(C(=O)Nc3nnnn3C)nn(C)c2=O)ccc1F [Compound 1.037] | 5 (5=80-100%)

What follows are compounds tested on Ipomoea hederacea (IPOHE) (assay: Herbicidal glasshouse test, pre-emergence, IPOHE). Conditions: applied at 1000 g/h, evaluated after 13 days.
Format: in vivo

Row | Compound | PRE Application IPOHE, percentage damage (five point scale)
21 | Cn1nnnc1NC(=O)c1nn(C)c(=O)n(-c2cc(C(F)(F)F)cc(C(F)(F)F)c2)c1=O [Compound 1.032] | 4 (4=60-79%)
22 | Cn1nnnc1NC(=O)c1nn(C)c(=O)n(-c2cccc(Br)c2)c1=O [Compound 1.033] | 5 (5=80-100%)
23 | CCOc1cccc(-n2c(=O)c(C(=O)Nc3nnnn3C)nn(C)c2=O)c1 [Compound 1.034] | 5 (5=80-100%)
24 | Cn1nnnc1NC(=O)c1nn(C)c(=O)n(-c2cc(Cl)cc(Cl)c2)c1=O [Compound 1.035] | 5 (5=80-100%)
25 | Cc1cc(-n2c(=O)c(C(=O)Nc3nnnn3C)nn(C)c2=O)ccc1F [Compound 1.037] | 5 (5=80-100%)

Each compound was assayed on Solanum nigrum (SOLNI) (assay: Herbicidal glasshouse test, post-emergence, SOLNI). Conditions: applied at 1000 g/h, evaluated after 13 days.
Format: in vivo

Row | Compound | POST Application SOLNI, percentage damage (five point scale)
26 | Cn1nnnc1NC(=O)c1nn(C)c(=O)n(-c2cc(C(F)(F)F)cc(C(F)(F)F)c2)c1=O [Compound 1.032] | 5 (5=80-100%)
27 | Cn1nnnc1NC(=O)c1nn(C)c(=O)n(-c2cccc(Br)c2)c1=O [Compound 1.033] | 5 (5=80-100%)
28 | CCOc1cccc(-n2c(=O)c(C(=O)Nc3nnnn3C)nn(C)c2=O)c1 [Compound 1.034] | 5 (5=80-100%)
29 | Cn1nnnc1NC(=O)c1nn(C)c(=O)n(-c2cc(Cl)cc(Cl)c2)c1=O [Compound 1.035] | 5 (5=80-100%)
30 | Cc1cc(-n2c(=O)c(C(=O)Nc3nnnn3C)nn(C)c2=O)ccc1F [Compound 1.037] | 5 (5=80-100%)

These compounds were tested on Amaranthus retoflexus (AMARE) (assay: Herbicidal glasshouse test, pre-emergence, AMARE). Conditions: applied at 1000 g/h, evaluated after 13 days.
Format: in vivo
Summary of the method: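 Amaranthus retoflexus seeds were sown in pots of standard soil and kept one day in a glasshouse at 24/16° C. (day/night), 14 hours light and 65% humidity. They were then sprayed pre-emergence with the active ingredient in acetone/water (50:50) containing 0.5% Tween 20. Plants grew under the same conditions, watered twice daily, and percentage damage was scored after 13 days.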

Row | Compound | PRE Application AMARE, percentage damage (five point scale)
31 | Cn1nnnc1NC(=O)c1nn(C)c(=O)n(-c2cc(C(F)(F)F)cc(C(F)(F)F)c2)c1=O [Compound 1.032] | 5 (5=80-100%)
32 | Cn1nnnc1NC(=O)c1nn(C)c(=O)n(-c2cccc(Br)c2)c1=O [Compound 1.033] | 5 (5=80-100%)
33 | CCOc1cccc(-n2c(=O)c(C(=O)Nc3nnnn3C)nn(C)c2=O)c1 [Compound 1.034] | 5 (5=80-100%)
34 | Cn1nnnc1NC(=O)c1nn(C)c(=O)n(-c2cc(Cl)cc(Cl)c2)c1=O [Compound 1.035] | 5 (5=80-100%)
35 | Cc1cc(-n2c(=O)c(C(=O)Nc3nnnn3C)nn(C)c2=O)ccc1F [Compound 1.037] | 5 (5=80-100%)

Each compound was assayed on Alopecurus myosuroides (ALOMY) (assay: Herbicidal glasshouse test, post-emergence, ALOMY). Conditions: applied at 1000 g/h, evaluated after 13 days.
Format: in vivo

Row | Compound | POST Application ALOMY, percentage damage (five point scale)
36 | Cn1nnnc1NC(=O)c1nn(C)c(=O)n(-c2cc(C(F)(F)F)cc(C(F)(F)F)c2)c1=O [Compound 1.032] | 5 (5=80-100%)
37 | Cn1nnnc1NC(=O)c1nn(C)c(=O)n(-c2cccc(Br)c2)c1=O [Compound 1.033] | 5 (5=80-100%)
38 | CCOc1cccc(-n2c(=O)c(C(=O)Nc3nnnn3C)nn(C)c2=O)c1 [Compound 1.034] | 5 (5=80-100%)
39 | Cn1nnnc1NC(=O)c1nn(C)c(=O)n(-c2cc(Cl)cc(Cl)c2)c1=O [Compound 1.035] | 5 (5=80-100%)
40 | Cc1cc(-n2c(=O)c(C(=O)Nc3nnnn3C)nn(C)c2=O)ccc1F [Compound 1.037] | 5 (5=80-100%)

What follows are compounds tested on Solanum nigrum (SOLNI) (assay: Herbicidal glasshouse test, pre-emergence, SOLNI). Conditions: applied at 1000 g/h, evaluated after 13 days.
Format: in vivo
Summary of the method: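 Seeds of Solanum nigrum were sown in pots of standard soil and kept one day in a glasshouse at 24/16° C. day/night, 14 hours light and 65% humidity. For the pre-emergence treatment they were then sprayed with an aqueous solution of the active ingredient formulated in acetone/water (50:50) containing 0.5% Tween 20. Plant damage was rated after 13 days.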

Row | Compound | PRE Application SOLNI, percentage damage (five point scale)
41 | Cn1nnnc1NC(=O)c1nn(C)c(=O)n(-c2cc(C(F)(F)F)cc(C(F)(F)F)c2)c1=O [Compound 1.032] | 5 (5=80-100%)
42 | Cn1nnnc1NC(=O)c1nn(C)c(=O)n(-c2cccc(Br)c2)c1=O [Compound 1.033] | 5 (5=80-100%)
43 | CCOc1cccc(-n2c(=O)c(C(=O)Nc3nnnn3C)nn(C)c2=O)c1 [Compound 1.034] | 5 (5=80-100%)
44 | Cn1nnnc1NC(=O)c1nn(C)c(=O)n(-c2cc(Cl)cc(Cl)c2)c1=O [Compound 1.035] | 5 (5=80-100%)
45 | Cc1cc(-n2c(=O)c(C(=O)Nc3nnnn3C)nn(C)c2=O)ccc1F [Compound 1.037] | 5 (5=80-100%)

These compounds were tested on Ipomoea hederacea (IPOHE) (assay: Herbicidal glasshouse test, post-emergence, IPOHE). Conditions: applied at 1000 g/h, evaluated after 13 days.
Format: in vivo

Row | Compound | POST Application IPOHE, percentage damage (five point scale)
46 | Cn1nnnc1NC(=O)c1nn(C)c(=O)n(-c2cc(C(F)(F)F)cc(C(F)(F)F)c2)c1=O [Compound 1.032] | 5 (5=80-100%)
47 | Cn1nnnc1NC(=O)c1nn(C)c(=O)n(-c2cccc(Br)c2)c1=O [Compound 1.033] | 5 (5=80-100%)
48 | CCOc1cccc(-n2c(=O)c(C(=O)Nc3nnnn3C)nn(C)c2=O)c1 [Compound 1.034] | 5 (5=80-100%)
49 | Cn1nnnc1NC(=O)c1nn(C)c(=O)n(-c2cc(Cl)cc(Cl)c2)c1=O [Compound 1.035] | 5 (5=80-100%)
50 | Cc1cc(-n2c(=O)c(C(=O)Nc3nnnn3C)nn(C)c2=O)ccc1F [Compound 1.037] | 5 (5=80-100%)

These compounds were tested on Echinochloa crus-galli (ECHCG) (assay: Herbicidal glasshouse test, post-emergence, ECHCG). Conditions: applied at 1000 g/h, evaluated after 13 days.
Format: in vivo
Summary of the method: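 Echinochloa crus-galli (ECHCG) seeds were sown in standard soil in pots and grown for 8 days in a glasshouse at 24/16° C. day/night, 14 hours light and 65% humidity. The young plants were then sprayed post-emergence with the active ingredient in acetone / water (50:50) containing 0.5% Tween 20. Damage was scored after 13 days.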

Row | Compound | POST Application ECHCG, percentage damage (five point scale)
51 | Cn1nnnc1NC(=O)c1nn(C)c(=O)n(-c2cc(C(F)(F)F)cc(C(F)(F)F)c2)c1=O [Compound 1.032] | 5 (5=80-100%)
52 | Cn1nnnc1NC(=O)c1nn(C)c(=O)n(-c2cccc(Br)c2)c1=O [Compound 1.033] | 5 (5=80-100%)
53 | CCOc1cccc(-n2c(=O)c(C(=O)Nc3nnnn3C)nn(C)c2=O)c1 [Compound 1.034] | 5 (5=80-100%)
54 | Cn1nnnc1NC(=O)c1nn(C)c(=O)n(-c2cc(Cl)cc(Cl)c2)c1=O [Compound 1.035] | 5 (5=80-100%)
55 | Cc1cc(-n2c(=O)c(C(=O)Nc3nnnn3C)nn(C)c2=O)ccc1F [Compound 1.037] | 5 (5=80-100%)

The compounds below were run on Amaranthus retoflexus (AMARE) (assay: Herbicidal glasshouse test, post-emergence, AMARE). Conditions: applied at 1000 g/h, evaluated after 13 days.
Format: in vivo
Summary of the method: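 Amaranthus retoflexus (AMARE) seeds were sown in pots of standard soil and grown in a glasshouse at 24/16° C. day/night, 14 hours light and 65% humidity for 8 days. The plants were then sprayed post-emergence with an aqueous solution of the active ingredient in acetone/water (50:50) with 0.5% Tween 20. Damage was scored after 13 days.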

Row | Compound | POST Application AMARE, percentage damage (five point scale)
56 | Cn1nnnc1NC(=O)c1nn(C)c(=O)n(-c2cc(C(F)(F)F)cc(C(F)(F)F)c2)c1=O [Compound 1.032] | 5 (5=80-100%)
57 | Cn1nnnc1NC(=O)c1nn(C)c(=O)n(-c2cccc(Br)c2)c1=O [Compound 1.033] | 5 (5=80-100%)
58 | CCOc1cccc(-n2c(=O)c(C(=O)Nc3nnnn3C)nn(C)c2=O)c1 [Compound 1.034] | 5 (5=80-100%)
59 | Cn1nnnc1NC(=O)c1nn(C)c(=O)n(-c2cc(Cl)cc(Cl)c2)c1=O [Compound 1.035] | 5 (5=80-100%)
60 | Cc1cc(-n2c(=O)c(C(=O)Nc3nnnn3C)nn(C)c2=O)ccc1F [Compound 1.037] | 5 (5=80-100%)
